Measurements from ChEMBL document CHEMBL1158188, “Natural polyphenols (vegetable tannins) as drugs: possible modes of action” (J Nat Prod, 1996).
pIC50: −log10 of the molar value.

Experiments:
[1] = Antioxidant activity assessed by superoxide anion scavenging assay; assay type: functional
[2] = Antioxidant activity assessed by singlet oxygen scavenging assay; assay type: functional
[3] = Antioxidant activity assessed by hydroxyl radical scavenging assay; assay type: functional
[4] = Binding affinity to desarginyl(1)bradykinin
[5] = Binding affinity to desarginyl(9)bradykinin
[6] = Binding affinity to bradykinin
[7] = Binding affinity to bradykinin peptide Arg-Pro-Pro-Gly-Phe
[8] = Octanol-water partition coefficient of the compound; assay type: physicochemical; conditions: read-out: log KOW

| Compound | pIC50 [1] | pIC50 [2] | pIC50 [3] | Ka [6] | also measured |
| --- | --- | --- | --- | --- | --- |
| CCCOC(=O)c1cc(O)c(O)c(O)c1 [PROPYL GALLATE] | 5.85 | 4.18 | 4.06 | – | – |
| O=C(OC[C@H]1O[C@@H](OC(=O)c2cc(O)c(O)c(O)c2)[C@H](OC(=O)c2cc(O)c(O)c(O)c2)[C@@H](OC(=O)c2cc(O)c(O)c(O)c2)[C@@H]1OC(=O)c1cc(O)c(O)c(O)c1)c1cc(O)c(O)c(O)c1 | – | – | – | 33.7 M⁻¹ | Ka [4]: 20 M⁻¹; Ka [5]: 20.4 M⁻¹; Ka [7]: 13 M⁻¹ |
| O=C1OCC2OC(=O)c3cc(O)c(O)c(O)c3-c3c(O)c(O)c(O)c4c3C(=O)OC(C2OC(=O)c2cc(O)c(O)c(O)c2-c2c1cc(O)c(O)c2O)C1OC(=O)c2c-4c(O)c(O)c(O)c2C1O (stereo unspecified) [VESCALAGIN] | – | – | – | – | logP [8]: 0.1 |
| O=C1OC[C@H]2OC(=O)c3cc(O)c(O)c(O)c3-c3c(O)c(O)c(O)c4c3C(=O)O[C@H]([C@H]3OC(=O)c5c-4c(O)c(O)c(O)c5[C@H]3O)[C@@H]2OC(=O)c2cc(O)c(O)c(O)c2-c2c1cc(O)c(O)c2O [CASTALAGIN] | – | – | – | – | logP [8]: 0.1 |
| O=C(OC[C@H]1O[C@@H](OC(=O)c2cc(O)c(O)c(O)c2)[C@H](OC(=O)c2cc(O)c(O)c(O)c2)[C@@H](O)[C@@H]1OC(=O)c1cc(O)c(O)c(O)c1)c1cc(O)c(O)c(O)c1 | – | – | – | 20.5 M⁻¹ | – |
| O=C1O[C@H]([C@@H](O)CO)C(O)=C1O [ASCORBIC ACID] | 4.63 | 3.92 | 4.73 | – | – |
| O=C(OC[C@H]1O[C@@H](OC(=O)c2cc(O)c(O)c(O)c2)[C@H](O)[C@@H](OC(=O)c2cc(O)c(O)c(O)c2)[C@@H]1O)c1cc(O)c(O)c(O)c1 | – | – | – | 4.4 M⁻¹ | – |
| O=C(OC[C@@H]1OC(O)[C@](O)(COC(=O)c2cc(O)c(O)c(O)c2)[C@H]1O)c1cc(O)c(O)c(O)c1 (stereo partly specified) [HAMAMELITANIN] | 5.88 | 4.34 | 5.26 | – | – |
| O=C(O)c1cc(O)c(O)c(O)c1 [GALLIC ACID] | 6.00 | 4.16 | 4.11 | – | – |
| Oc1cc(O)c2c(c1)O[C@H](c1ccc(O)c(O)c1)[C@H](O)[C@H]2c1c(O)cc(O)c2c1O[C@H](c1ccc(O)c(O)c1)[C@H](O)C2 | – | – | – | 8.2 M⁻¹ | – |
